Measured values: PubChem BioAssay (NCI)
Where “and” joins values, the source holds several entries; their conditions need not be identical. Identical values can stand only once.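 Growth conditions: 96-well plates. Treatment: test compound, 48 hours, 5 concentrations. Analysis: linear interpolation between bracketing concentrations; unreached endpoints set to highest concentration. Abbreviation: GI50, concentration required for 50% inhibition of growth. The concentration for full growth arrest is given as TGI.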

Tests used:
Assay in all cases: NCI-60 cell line screen, 48 h
[1] = test system: SF-295 CNS
[2] = test system: OVCAR-3 ovarian
[3] = test system: HCT-116 colon
[4] = test system: SF-539 CNS
[5] = test system: A498 renal
[6] = test system: SK-MEL-5 melanoma
[7] = test system: SK-MEL-28 melanoma
[8] = test system: HOP-62 NSCLC
[9] = test system: HOP-92 NSCLC
[10] = test system: HS 578T breast

SMILES: CCOC(=O)c1cc(/C=C/C(C)=C/C(=O)OC)oc1-c1ccccc1
- TGI [1]: > 100 µM
- TGI [2]: > 100 µM
- TGI [3]: > 100 µM
- TGI [4]: > 100 µM
- TGI [5]: > 100 µM
- TGI [6]: > 100 µM

SMILES: Cc1nc2ccccc2c(=O)n1/N=C(\N=Nc1cc(Cl)ccc1Cl)c1cccc(-c2ccco2)c1
- TGI [7]: > 100 µM
- TGI [1]: > 100 µM
- TGI [2]: > 100 µM
- TGI [3]: > 100 µM
- TGI [4]: > 100 µM
- TGI [8]: > 100 µM
- TGI [5]: > 100 µM
- TGI [9]: 99.5 µM
- TGI [6]: > 100 µM

SMILES: Cc1ccc(C2CC(c3ccc([N+](=O)[O-])cc3)=Nc3ccccc3S2)cc1 (stereo unspecified)
- TGI [7]: 94.3 µM
- TGI [1]: > 100 µM
- TGI [2]: 99.7 µM
- TGI [4]: 71.9 µM
- TGI [8]: > 100 µM
- TGI [5]: 77.1 µM
- TGI [6]: 38 µM

SMILES: NC(=O)c1cc(-c2ccncc2)cc(-c2ccccc2)c1N
- GI50 [7]: > 25 µM
- TGI [7]: > 25 µM
- GI50 [1]: > 25 µM
- TGI [1]: > 25 µM
- GI50 [2]: 20.5 µM
- TGI [2]: > 25 µM
- GI50 [10]: 6.35 µM
- TGI [10]: > 23.6 µM
- GI50 [3]: > 24 µM
- TGI [3]: > 25 µM
- GI50 [4]: 10.8 µM
- TGI [4]: > 25 µM
- GI50 [8]: > 25 µM
- TGI [8]: > 25 µM
- GI50 [5]: 4.64 µM
- TGI [5]: 21.9 µM
- GI50 [6]: 14.7 µM
- TGI [6]: > 25 µM

SMILES: O=C(CC(=O)c1ccc([N+](=O)[O-])cc1)C(=O)Nc1nccs1
- TGI [7]: > 100 µM
- TGI [2]: > 100 µM
- TGI [3]: > 100 µM
- TGI [4]: > 100 µM
- TGI [8]: > 100 µM
- TGI [9]: > 100 µM
- TGI [6]: > 100 µM

SMILES: O=S1CSCS1 (stereo unspecified)
- TGI [7]: > 100 µM
- TGI [1]: > 100 µM
- TGI [2]: > 100 µM
- TGI [3]: > 100 µM
- TGI [4]: > 100 µM
- TGI [8]: > 100 µM
- TGI [5]: > 100 µM
- TGI [9]: > 100 µM
- TGI [6]: > 100 µM

SMILES: O=C(c1ccccc1)C(c1ccccc1)C1(O)C(=O)Nc2ccccc21 (stereo unspecified)
- TGI [7]: > 100 µM
- TGI [1]: > 100 µM
- TGI [2]: > 100 µM
- TGI [3]: > 100 µM
- TGI [4]: > 100 µM
- TGI [8]: > 100 µM
- TGI [5]: > 100 µM
- TGI [9]: > 100 µM
- TGI [6]: > 100 µM

SMILES: CC1(C)C(c2ccccc2)C12CCC1(C2=O)C(c2ccccc2)C1(C)C (stereo unspecified)
- TGI [7]: 78.3 µM
- TGI [1]: 47.2 µM
- TGI [2]: 43.5 µM
- TGI [3]: 33.6 µM
- TGI [4]: 75.2 µM
- TGI [8]: 60.5 µM
- TGI [5]: 90.7 µM
- TGI [9]: 31.6 µM
- TGI [6]: 37.9 µM

SMILES: O=C(O)C1CCc2nnc(-c3ccccc3)n21 (stereo unspecified)
- TGI [7]: > 100 µM
- TGI [2]: > 100 µM
- TGI [3]: > 100 µM
- TGI [4]: > 100 µM
- TGI [8]: > 100 µM
- TGI [5]: > 100 µM
- TGI [6]: > 100 µM

SMILES: C/C=C(\C)c1cc(=O)c2c(C)cc3c(c2o1)C(=O)c1c(O)c(C2CC(C)(N(C)C)C(O)C(C)O2)cc(C2CC(N(C)C)C(O)C(C)O2)c1C3=O (stereo unspecified)
- TGI [10]: 0.517 µM
- TGI [3]: 1.3 µM and 10.2 µM
- TGI [5]: 0.453 µM

SMILES: O=C1c2ccccc2C(=O)C2C1C1C(=O)c3ccccc3C(=O)C21 (stereo unspecified)
- TGI [7]: > 100 µM
- TGI [1]: > 100 µM
- TGI [2]: > 100 µM
- TGI [4]: > 100 µM
- TGI [8]: > 100 µM
- TGI [9]: > 100 µM
- TGI [6]: > 100 µM

SMILES: COc1c(C2=NC(C(C)C)CO2)ccc2ccccc12 (stereo unspecified)
- TGI [7]: > 100 µM
- TGI [1]: > 100 µM
- TGI [2]: > 100 µM
- TGI [4]: > 100 µM
- TGI [8]: > 100 µM
- TGI [5]: > 100 µM
- TGI [9]: > 100 µM
- TGI [6]: 36.3 µM

SMILES: NC(C/[N+]([O-])=N/O)C(=O)O (stereo unspecified)
- GI50 [7]: > 47.8 µM and > 100 µM and 24.5 µM
- TGI [7]: > 500 µM
- GI50 [1]: 6.24 µM
- TGI [1]: > 500 µM
- GI50 [2]: 20.1 µM and 44.5 µM and 13 µM
- TGI [2]: > 100 µM and 342 µM
- TGI [10]: > 225 µM
- GI50 [3]: 1.01 µM and 2.07 µM and 0.954 µM
- TGI [4]: > 100 µM and 366 µM
- GI50 [8]: 19.4 µM and 9.42 µM and 4.9 µM
- TGI [8]: > 100 µM and 92.7 µM
- GI50 [9]: > 91.7 µM and 71.4 µM and 33.4 µM
- TGI [9]: > 100 µM and 209 µM
- GI50 [6]: 1.9 µM and 8.31 µM and 1.46 µM
- TGI [6]: > 42.7 µM and > 100 µM and 114 µM

SMILES: Cc1cc(=O)n(-c2ccccc2)c(=O)o1
- TGI [7]: > 100 µM
- TGI [1]: > 100 µM
- TGI [2]: > 100 µM
- TGI [3]: > 100 µM
- TGI [4]: > 100 µM
- TGI [8]: > 100 µM
- TGI [5]: > 100 µM
- TGI [9]: > 100 µM
- TGI [6]: > 100 µM

SMILES: CCCN(CCCN)/[N+]([O-])=N\O
- TGI [7]: > 100 µM
- TGI [1]: > 100 µM
- TGI [2]: > 100 µM
- TGI [3]: > 100 µM
- TGI [4]: > 100 µM
- TGI [8]: > 100 µM
- TGI [9]: > 100 µM
- TGI [6]: > 100 µM

SMILES: N=CCCN(CCC=N)c1ccc(/C=C2\CN(NC(=O)c3ccc(Cl)cc3)C(c3ccccc3)=N2)cc1
- TGI [7]: > 100 µM
- TGI [1]: > 100 µM
- TGI [2]: > 100 µM
- TGI [3]: > 100 µM
- TGI [4]: > 100 µM
- TGI [8]: > 100 µM
- TGI [5]: > 100 µM
- TGI [9]: > 100 µM
- TGI [6]: > 100 µM

SMILES: NC(N)=NS(=O)(=O)c1ccc(Nc2c3ccccc3nc3c(C(=O)N4CCN(CCO)CC4)cccc23)cc1
- TGI [7]: > 100 µM
- TGI [1]: > 100 µM
- TGI [2]: > 100 µM
- TGI [3]: > 100 µM
- TGI [4]: > 100 µM
- TGI [8]: > 100 µM
- TGI [5]: > 100 µM
- TGI [9]: > 100 µM
- TGI [6]: > 100 µM

SMILES: Cc1ccc(NC(=O)CC/C(CC(=O)C(C)(C)C)=N/NC(=O)C(N)=O)cc1C
- TGI [7]: > 100 µM
- TGI [1]: > 100 µM
- TGI [2]: > 100 µM
- TGI [3]: > 100 µM
- TGI [4]: > 100 µM
- TGI [8]: > 100 µM
- TGI [5]: > 100 µM
- TGI [9]: > 100 µM
- TGI [6]: > 100 µM

SMILES: COc1cc2c(c(OC)c1OC)C(=O)CC(c1cccc(NC(=O)c3ccc(Br)cc3)c1)O2 (stereo unspecified)
- GI50 [7]: 2.98 µM
- TGI [7]: > 100 µM
- GI50 [1]: 2.6 µM
- TGI [1]: > 100 µM
- GI50 [10]: 4.1 µM
- TGI [10]: > 100 µM
- GI50 [3]: 2.63 µM
- TGI [3]: > 100 µM
- GI50 [4]: 3.86 µM
- TGI [4]: > 100 µM
- GI50 [8]: 2.89 µM
- TGI [8]: > 100 µM
- GI50 [5]: 1.55 µM
- TGI [5]: 8.15 µM
- GI50 [6]: 1.62 µM
- TGI [6]: 3.32 µM

SMILES: CN(C)c1ccc2c(c1)CN1C(=O)c3ccccc3C1=N2
- GI50 [7]: > 100 µM
- TGI [7]: > 100 µM
- GI50 [1]: > 100 µM
- TGI [1]: > 100 µM
- GI50 [2]: > 100 µM
- TGI [2]: > 100 µM
- GI50 [3]: > 100 µM
- TGI [3]: > 100 µM
- GI50 [4]: > 100 µM
- TGI [4]: > 100 µM
- GI50 [9]: > 100 µM
- TGI [9]: > 100 µM
- GI50 [6]: > 100 µM
- TGI [6]: > 100 µM

SMILES: COc1ccc(C2=Nc3ccccc3SC(C)C2)cc1 (stereo unspecified)
- TGI [7]: > 100 µM
- TGI [1]: > 100 µM
- TGI [2]: > 100 µM
- TGI [3]: 33 µM
- TGI [4]: > 100 µM
- TGI [8]: > 100 µM
- TGI [5]: > 100 µM
- TGI [9]: > 100 µM
